Reference: paper PMC10064984, “Anti-cyclooxygenase, anti-glycation, and anti-skin aging effect of Dendrobium officinale flowers’ aqueous extract and its phytochemical validation in aging” (Frontiers in Immunology, 2023)
Where “and” joins values, the source holds several entries; their conditions need not be identical. Equal values may be shown once. Read-outs that look alike come from different tables or passages of the source.

Assays:
Type in all cases: biochemical
[1] = ABTS·+ decolourisation capacity; details: for ABTS scavenging rate: 0.5mM series, replicate wells, listed as T17; for IC50: mean ± SD, n = 3
Protocol: Fast colourimetric methods were slightly modified for the in vitro assessment of DPPH· scavenging ([19]), ABTS·+ decolourisation capacity ([20]), and total antioxidant capacity of FRAP ([21]). The stock solutions of derivatisation reagents were diluted as follows before measurement: DPPH was diluted with absolute ethanol until the absorbance was 0.8 ± 0.05 at λ = 517 nm. ABTS working solution was prepared with phosphate buffer (0.2 M, pH 7.4) to display absorbance of 0.8 ± 0.05 at λ = 729 nm, based on a previous study ([22]). The FRAP solution was prepared according to the instructions of the FRAP kit. Absorbances were measured using an automatic microplate reader (Molecular Group Ltd., USA), and all analyses were performed using 96-well plates. All measurements were performed in triplicate, and Trolox was used as a positive control.
For ABTS·+ decolourisation capacity, 100 μl of ABTS working solution was mixed with 200 μl of sample solution, and the absorbance was recorded after 10 min at 729 nm. Phosphate buffer (0.2 M, pH 7.4) was used as a negative control.
DPPH· and ABTS·+ radical scavenging activities of the tested sample were both calculated using the following formula:
% inhibition = (A control − A sample)/A control × 100
Where A control and A sample represent the absorbance of the control and test samples, respectively. The IC50 was calculated graphically from the dose-inhibition curves.

COX-2 = biological target: T1, COX-2 (Homo sapiens, UniProt P35354); test: Anti-COX-2 assay (COX-2 Inhibitor Screening Kit)
T1 construct: purchased Beyotime S0168
T1 sequence (P35354 18-604): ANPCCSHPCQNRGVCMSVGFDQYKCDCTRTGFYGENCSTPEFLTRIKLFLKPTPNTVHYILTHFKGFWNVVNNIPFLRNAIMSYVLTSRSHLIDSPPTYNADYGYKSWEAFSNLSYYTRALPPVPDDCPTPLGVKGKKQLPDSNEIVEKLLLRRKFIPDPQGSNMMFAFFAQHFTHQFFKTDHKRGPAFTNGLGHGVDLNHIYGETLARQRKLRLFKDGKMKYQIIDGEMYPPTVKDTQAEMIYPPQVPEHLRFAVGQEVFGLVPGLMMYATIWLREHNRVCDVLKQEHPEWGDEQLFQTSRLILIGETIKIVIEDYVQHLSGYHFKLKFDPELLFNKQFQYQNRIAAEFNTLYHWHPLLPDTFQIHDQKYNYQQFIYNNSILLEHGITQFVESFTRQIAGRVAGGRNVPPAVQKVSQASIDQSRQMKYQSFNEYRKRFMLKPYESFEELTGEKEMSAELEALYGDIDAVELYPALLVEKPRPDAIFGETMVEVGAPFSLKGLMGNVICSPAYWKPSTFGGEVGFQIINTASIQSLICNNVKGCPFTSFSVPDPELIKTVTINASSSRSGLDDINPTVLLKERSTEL

DPPH· scavenging = details: mean ± SD, n = 3
[2] = FRAP total antioxidant capacity; details: lower part of sheet (compound series);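 also: colourimetric FRAP kit assay read as absorbance in 96-well plates, values as mM FeSO4 via standard curve, EC1 being sample concentration matching 1.0 mmol/L FeSO4, Trolox positive control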
[3] = Fluorescent AGEs formation in a BSA-fructose/glucose system; details: for IC50: mean ± SD, n = 3, read-out: BSA-glycation IC50; for inhibition of fluorescent AGEs formation (BSA-抗糖化), single replicate: individual replicate; for inhibition of fluorescent AGEs formation (BSA-抗糖化), 平均 (mean): mean of 3 replicates
Protocol: Glycated protein was prepared in vitro by incubating BSA in the presence of D-glucose (GLC) and D-fructose (FRC). The DOF extract and specific standards were dissolved in DMSO:water (1:4). […] The assay was performed in triplicate, and AG was used as a positive control. The percentage inhibition of fluorescent AGE formation was calculated using the following equation: […] Where IF sample is fluorescence intensity in the presence of samples and BSA, IF sample control is fluorescence intensity in the presence of samples without BSA, IF control is fluorescence intensity without samples, and IF blank control is fluorescence intensity without samples and BSA.

Q: For `O=c1cc(-c2ccc(O)c(O)c2)oc2cc(O)c(C3OC(CO)C(O)C(O)C3O)c(O)c12` [compound 18, Luteolin-6-C-β-D-glucoside], which ABTS scavenging rate ([1]; concentration 7.8125 (unit not given)) is on record?
A: The ABTS scavenging rate was 55.37% and 55.07% and 56.44%.

Q: What about the ABTS scavenging rate ([1]; concentration 15.625 (unit not given)) of the same molecule?
A: The ABTS scavenging rate was 79.33% and 79.42% (2×).

Q: What about the ABTS scavenging rate ([1]; concentration 31.25 (unit not given)) of the same molecule?
A: The ABTS scavenging rate was 99.48% (2×) and 99.43%.

Q: And the ABTS scavenging rate ([1]; concentration 62.5 (unit not given))?
A: Its ABTS scavenging rate is 99.27% and 99.11% and 99.08%.

Q: And the ABTS scavenging rate ([1]; concentration 125 (unit not given))?
A: The ABTS scavenging rate was 99.06% and 98.78% and 98.90%.

Q: And the ABTS scavenging rate ([1]; concentration 250 (unit not given))?
A: Its ABTS scavenging rate is 98.95% and 99.14% and 99.11%.

Q: What about the ABTS scavenging rate ([1]; concentration 500 (unit not given)) of the same molecule?
A: Its ABTS scavenging rate is 99.30% and 99.22% and 99.17%.

Q: What about the IC50 [1] of the same molecule?
A: The IC50 was 7.1 ± 0.1 µM.

Q: What about the “COX-2 inhibition (in words)” value (COX-2) of the same molecule?
A: The value was “great COX-2 inhibition”.

Q: And the inhibition at 3.125 µM (COX-2; 3.125 μM, single replicates)?
A: The inhibition at 3.125 µM was 16.9%.

Q: And the COX-2 inhibition (COX-2; 3.125 μM, single replicates, listed as T17, 3.125 µM)?
A: The COX-2 inhibition was 26.59% and 29.93%.

Q: What about the COX-2 inhibition (COX-2; 6.25 μM, single replicates, listed as T17, 6.25 µM) of the same molecule?
A: The COX-2 inhibition was 36.73% and 36.77% and 59.48%.

Q: And the inhibition at 12.5 µM (COX-2; 12.5 μM, single replicates)?
A: Its inhibition at 12.5 µM is 65.1%.

Q: What about the COX-2 inhibition (COX-2; 12.5 μM, single replicates, listed as T17, 12.5 µM) of the same molecule?
A: The COX-2 inhibition was 69.47% and 74.84%.

Q: What about the inhibition at 25 µM (COX-2; 25 μM, single replicates) of the same molecule?
A: Its inhibition at 25 µM is 74.8%.

Q: And the COX-2 inhibition (COX-2; 25 μM, single replicates, listed as T17, 25 µM)?
A: The COX-2 inhibition was 75.14% and 79.85%.

Q: What about the inhibition at 50 µM (COX-2; 50 μM, single replicates) of the same molecule?
A: The inhibition at 50 µM was 78.4%.

Q: And the COX-2 inhibition (COX-2; 50 μM, single replicates, listed as T17, 50 µM)?
A: Its COX-2 inhibition is 79.38% and 83.25%.

Q: What about the inhibition at 100 µM (COX-2; 100 μM, single replicates) of the same molecule?
A: Its inhibition at 100 µM is 84.8%.

Q: And the COX-2 inhibition (COX-2; 100 μM, single replicates, listed as T17, 100 µM)?
A: The COX-2 inhibition was 81.46% and 83.62%.

Q: And the inhibition at 200 µM (COX-2; 200 μM, single replicates)?
A: The inhibition at 200 µM was 90.6%.

Q: And the COX-2 inhibition (COX-2; 200 μM, single replicates, listed as T17, 200 µM)?
A: Its COX-2 inhibition is 89.90% and 90.15%.

Q: What about the IC50 (COX-2; mean ± SD, n = 3, nd, not detected, read-out: COX-2 IC50) of the same molecule?
A: The IC50 was 7.9 ± 2.4 µM.

Q: What about the IC50 (COX-2; supplement sheet COX, read-out: COX-2 IC50, single replicate) of the same molecule?
A: Its IC50 is 10 µM and 8.56 µM and 5.24 µM.

Q: And the IC50 (DPPH· scavenging)?
A: The IC50 was 102 ± 6.2 µM.

Q: What about the “FRAP EC1” value [2] of the same molecule?
A: Its value is 506.6 ± 78.3 µM.

Q: And the IC50 [3]?
A: Its IC50 is 317 ± 15.6 µM.

Q: With `O=c1cc(-c2ccc(O)cc2)oc2c(C3OCC(O)C(O)C3O)c(O)c(C3OCC(O)C(O)C3O)c(O)c12` [compound 26, Apigenin-6-C-α-L-arabinoside-8-C-β-D-xyloside] as the molecule, how does the IC50 [1] read?
A: The IC50 was 80.36 ± 0.77 µM.

Q: And the “COX-2 inhibition (in words)” value (COX-2)?
A: Its value is “no inhibitory effects”.

Q: And the IC50 (DPPH· scavenging)?
A: The IC50 was over 5000 µM.

Q: What about the “FRAP EC1” value [2] of the same molecule?
A: Its value is over 5000 µM.

Q: And the “inhibition of fluorescent AGEs formation (BSA-抗糖化), single replicate” value (“inhibition … single replicate” for short) ([3]; 15.625 µM, listed as T10, 15.625 µM)?
A: Its value is -0.15% and 0.19% and 0.09%.

Q: What about the “inhibition of fluorescent AGEs formation (BSA-抗糖化), 平均 (mean)” value (“inhibition … (mean)” below) ([3]; 15.625 µM) of the same molecule?
A: Its value is 0.045%.

Q: What about the “inhibition … single replicate” value ([3]; 31.25 µM, listed as T10, 31.25 µM) of the same molecule?
A: The value was 6.49% and 8.31% and 6.26%.

Q: And the “inhibition … (mean)” value ([3]; 31.25 µM)?
A: Its value is 7.02%.

Q: What about the “inhibition … single replicate” value ([3]; 62.5 µM, listed as T10, 62.5 µM) of the same molecule?
A: The value was 15.98% and 16.92% and 15.72%.

Q: And the “inhibition … (mean)” value ([3]; 62.5 µM)?
A: The value was 16.21%.

Q: What about the “inhibition … single replicate” value ([3]; 125 µM, listed as T10, 125 µM) of the same molecule?
A: Its value is 27.64% and 28.36% and 29.90%.

Q: And the “inhibition … (mean)” value ([3]; 125 µM)?
A: The value was 28.63%.

Q: What about the “inhibition … single replicate” value ([3]; 250 µM, listed as T10, 250 µM) of the same molecule?
A: Its value is 48.76% and 48.06% and 47.15%.

Q: And the “inhibition … (mean)” value ([3]; 250 µM)?
A: The value was 47.99%.

Q: What about the “inhibition … single replicate” value ([3]; 500 µM, listed as T10, 500 µM) of the same molecule?
A: Its value is 67.27% and 67.99% and 65.66%.

Q: What about the “inhibition … (mean)” value ([3]; 500 µM) of the same molecule?
A: The value was 66.98%.

Q: And the “inhibition … single replicate” value ([3]; 1000 µM, listed as T10, 1000 µM)?
A: Its value is 82.36% and 81.32% and 81.69%.

Q: What about the “inhibition … (mean)” value ([3]; 1000 µM) of the same molecule?
A: Its value is 81.79%.

Q: And the “inhibition … single replicate” value ([3]; 2000 µM, listed as T10, 2000 µM)?
A: The value was 90.52% and 90.97% and 89.78%.

Q: What about the “inhibition … (mean)” value ([3]; 2000 µM) of the same molecule?
A: The value was 90.42%.

Q: What about the “inhibition … single replicate” value ([3]; 4000 µM (series head 'T9 4000µM', 2-fold dilutions), listed as T10) of the same molecule?
A: The value was 95.10% and 95.64% and 95.09%.

Q: What about the “inhibition … (mean)” value ([3]; 4000 µM) of the same molecule?
A: The value was 95.27%.

Q: And the IC50 [3]?
A: Its IC50 is 273 ± 4.7 µM.
